# From US11207366B2, “Traditional Chinese medicine composition comprising dried tangerine peels and dark tea for treating diabetes and preparation method thereof” (priority 2017, dated 2021)
# Tested on: diabetes patients
# Test: Clinical experiment examples: fasting blood glucose of diabetes patients
# Assay type: in vivo, human
# Text: In another preferred embodiment of the present invention, the tea bricks after the above-mentioned about 2-year aging time are pulled apart and left in the air for about 30 days for oxidization. After the loosen tea leaves are oxidized for about 30 days, they are smashed into small particles or powders. And then another 5 parts (by weight) to 15 parts (by weight) of blended tangerine peels are taken and smashed into particles or powders. The above-mentioned tangerine peels, in particles or powders form, are blended into the above-mentioned black teas, in particles or powders form. Then the composition can be used as the traditional Chinese medical tea drinks for treating diabetes. General patients can drink the tea once or twice a day, each time 5-10 grams. Severe patients can drink twice a day, each time 10-20 grams.
# Clinical Experiment Examples
# Oct. 23, 2016: fasting blood glucose was 8.9 mml. The patient administrated metformin, three times a day, one tablet each time before meals.
# Oct. 29, 2016: the value of fasting blood glucose was 6.8 mml, and the traditional Chinese medicine tea drinks of the present invention were administrated twice a day, each time 5 grams of the tea, with the continuation of administration of the metformin.
# Subject: The patient is a person, who has a long history of diabetes. Before drinking the traditional Chinese medicine tea drinks of the present invention, the subject administrated hypoglycemic agents (metformin) for long before each meal, each time 2 tablets. Test results (measured on empty stomach at 7 o'clock in the morning)
# From the above case, it can be seen that only administration of metformin to decrease blood glucose would not lead to a good controlling effect, and the average value of blood glucose was 12.3 mml with a large fluctuation that varies from the 8.5 mml to the highest 19.5 mml After drinking the traditional Chinese medicine tea drinks of the present invention (brewing 1 to 2 bags every day), the average value of blood glucose was 8.6 mml with a steady trend where the values were fluctuated within 7-10 mml without the occurrence of very high measured results.
smiles,measurement,setting,value
CN(C)C(=N)N=C(N)N [metformin],fasting blood glucose,"Case 1, Oct. 23, 2016, metformin three times a day, one tablet before meals (first day reported)",8.9 mml
same,fasting blood glucose,"Case 1, Oct. 24, 2016, metformin only",7.5 mml
same,fasting blood glucose,"Case 1, Oct. 25, 2016, metformin only",7.4 mml
same,fasting blood glucose,"Case 1, Oct. 26, 2016, metformin only, big dinner and wine the evening before",8.3 mml
same,fasting blood glucose,"Case 1, Oct. 29, 2016, on metformin, day the tea drinks (twice a day, 5 grams) were started",6.8 mml
same,measured average value of blood glucose,"Case 1, metformin, 9 days from October 20 to October 29",7.5 mml
same,blood glucose measured on empty stomach at 7 o'clock in the morning,"Case 2, metformin only (2 tablets before each meal), Aug. 24, 2016",9.4 mml
same,blood glucose measured on empty stomach at 7 o'clock in the morning,"Case 2, metformin only, Aug. 28, 2016",9.9 mml
same,blood glucose measured on empty stomach at 7 o'clock in the morning,"Case 2, metformin only, Dec. 2, 2016",11.8 mml
same,blood glucose measured on empty stomach at 7 o'clock in the morning,"Case 2, metformin only, Dec. 9, 2016",12.6 mml
same,blood glucose measured on empty stomach at 7 o'clock in the morning,"Case 2, metformin only, Dec. 14, 2016",11.9 mml
same,blood glucose measured on empty stomach at 7 o'clock in the morning,"Case 2, metformin only, Dec. 18, 2016",12.3 mml
same,blood glucose measured on empty stomach at 7 o'clock in the morning,"Case 2, metformin only, Dec. 24, 2016",12.5 mml
same,blood glucose measured on empty stomach at 7 o'clock in the morning,"Case 2, metformin only, Dec. 28, 2016",14.7 mml
same,blood glucose measured on empty stomach at 7 o'clock in the morning,"Case 2, metformin only, Jan. 2, 2017",13.3 mml
same,blood glucose measured on empty stomach at 7 o'clock in the morning,"Case 2, metformin only, Jan. 6, 2017",11.8 mml
same,blood glucose measured on empty stomach at 7 o'clock in the morning,"Case 2, metformin only, Nov. 1, 2016",14.5 mml
same,blood glucose measured on empty stomach at 7 o'clock in the morning,"Case 2, metformin only, Nov. 5, 2016",13.4 mml
same,blood glucose measured on empty stomach at 7 o'clock in the morning,"Case 2, metformin only, Nov. 10, 2016",11.1 mml
same,blood glucose measured on empty stomach at 7 o'clock in the morning,"Case 2, metformin only, Nov. 13, 2016",13 mml
same,blood glucose measured on empty stomach at 7 o'clock in the morning,"Case 2, metformin only, Nov. 18, 2016",14 mml
same,blood glucose measured on empty stomach at 7 o'clock in the morning,"Case 2, metformin only, Nov. 20, 2016",8.5 mml
same,blood glucose measured on empty stomach at 7 o'clock in the morning,"Case 2, metformin only, Nov. 27, 2016",9.4 mml
same,blood glucose measured on empty stomach at 7 o'clock in the morning,"Case 2, metformin only, Oct. 1, 2016",11 mml
same,blood glucose measured on empty stomach at 7 o'clock in the morning,"Case 2, metformin only, Oct. 4, 2016",12.7 mml
same,blood glucose measured on empty stomach at 7 o'clock in the morning,"Case 2, metformin only, Oct. 11, 2016",15.9 mml
same,blood glucose measured on empty stomach at 7 o'clock in the morning,"Case 2, metformin only, Oct. 24, 2016",19.5 mml
same,blood glucose measured on empty stomach at 7 o'clock in the morning,"Case 2, metformin only, Sep. 3, 2016",12.5 mml
same,blood glucose measured on empty stomach at 7 o'clock in the morning,"Case 2, metformin only, Sep. 11, 2016",8.7 mml
same,blood glucose measured on empty stomach at 7 o'clock in the morning,"Case 2, metformin only, Sep. 23, 2016",11.6 mml
same,average value of blood glucose,"Case 2, only administration of metformin",12.3 mml
